The values that follow come from the NIST ThermoML archive (doi:10.1016/j.fluid.2014.11.010).

± gives the expanded uncertainty stated by the source.

For the data set the following is noted: 313.15 K; Liquid; Closed cell (Static) method.
As a reminder, the vapor or sublimation pressure is the pressure of vapour in equilibrium with the condensed phase. Turning to `C=CCCCC` [hex-1-ene], the “vapor or sublimation pressure” value came out at 45 ± 0.092 kPa.
As for `Cc1ccccc1` [toluene], the “vapor or sublimation pressure” value turned out to be 7.876 ± 0.022 kPa.
Take `CCCCO` [butan-1-ol]: the “vapor or sublimation pressure” value was 2.506 ± 0.015 kPa.
The figure for `CCC(C)O` (centres undefined) [butan-2-ol] is 6.05 ± 0.02 kPa.
